Measured values: patent publication US20160011177A1, “SCREENING METHOD FOR THERAPEUTIC AGENTS FOR CHARCOT-MARIE-TOOTH DISEASE AND SELF-DIFFERENTIATION MOTOR NEURONS USED THEREFOR” (Samsung Life Public Welfare Foundation, priority 2013, published 2016)
“Also recorded” adds a separate entry of the source.

Experiments:
[1] = test system: CMT1A transgenic mouse; conditions: cited from earlier work
[2] = test system: CMT 2F-MN; test: α-tubulin acetylation in motor neurons (immunostaining, Western blotting); assay type: cell-based, human; conditions: 5 μM tubastatin A, 12 hours, versus non-treated and normal control WA09_MN
Excerpt: To use the neurons differentiated from CMT patient originated iPSCs as the CMT drug efficiency test model, the recovery of axonal transport according to the treatment of tubastatin A, the histon deacetylase 6 (HDAC6) inhibitor, was investigated. CM2 subtype has heterogeneity in CMT causing gene, but nevertheless it causes malfunction in axonal transport system in many patients (Gentil B J and Cooper L, Brain Res Bull 2012; 88: 444-453). Therefore, the axonal transport efficiency of CMT 2F-MN was investigated by measuring the level of α-tubulin acetylation which was reported previously to be associated with the interaction between the vehicle and the motor protein (Westermann S and Weber K. Nat Rev Mol Cell Biol 2003; 4: 938-947).
Particularly, the CMT-2F-MN or WA09_MN differentiated by the same manner as described in Example <3-1> was treated with 5 μM tubastatin A, followed by culture for 12 hours. Then, the cells were immunostained with α-tubulin and acetylated α-tubulin by the same manner as described in Example <2-3>. […]
The CMT-2F-MN or WA09_MN treated with 5 μM tubastatin A was suspended in RIPA lysis buffer (pH 8.0) containing 150 mM NaCl, 1.0% NP-40, 0.5% sodium deoxycholate, 0.1% sodium dodecylsulfate, and 50 mM Tris. […] The band density was analyzed by using UN-SCAN-IT gel software in order to (Silk Scientific, USA) measure the level of α-tubulin acetylation. […]

[3] = test system: WA09_hESC-MN; test: Moving mitochondria in motor neuron axons, microfluidic culture; assay type: cell-based, human; conditions: 6 hours
Excerpt: (§1) To use the neurons differentiated from CMT patient originated iPSCs as the CMT drug efficiency test model, moving mitochondria was investigated over the treatment of tubastatin A, the histon deacetylase 6 (HDAC6) inhibitor, through microfluidic culture, as shown in FIG. 13. And the axonal transport efficiency of motor neurons (CMT 2F-MN) was confirmed (FIG. 13).
(§2) Particularly, the CMT-2F-MN or WA09_MN obtained in Example <3-1> was separated as single cells by using accutase, which were then inoculated in microchannel plates (provided by Dr. Mok, Seoul National University, Korea; Park J W et al., Nat Protoc 2006; 1: 2128-2136) at the density of 1.0×10^5 cells/plate, followed by culture in neurobasal/B27 for 10 days. After axons were fully grown through micrometer-sized grooves and stretched to the opposite compartment, the processed motor neurons were transfected with mito-dsRED2 by using lipofectamine 2000 (Invitrogen, USA). Within 2 days from the transfection, 5˜10 μM tubastatin A was treated to the medium, followed by culture for 6 hours. Imaging of mitochondria was performed by using fluorescent microscope at the speed of 121 snaps/2 min. Moving velocity of the motor neuron was measured by using ImageJ and Kymograph.

[4] = test system: HSP27 P182L-MN; test: as above; assay type: cell-based, human
Excerpt: as §1, §2

[5] = test system: HSP27 S135F-MN; test: as above; assay type: cell-based, human
Excerpt: as §1, §2

[6] = test system: Pmp22 mRNA; conditions: transgenic mouse; cited from earlier work
[7] = test system: myelinated nerve fibers; conditions: cited from earlier work
[8] = CMT 2F-MN with P182L mutation, tubastatin A treated versus non-treated
[9] = CMT 2F-MN with S135F mutation, tubastatin A treated versus non-treated

## O=C1O[C@H]([C@@H](O)CO)C(O)=C1O [Ascorbic acid]
[1]
  phenotype of hereditary motor and sensory neuropathies: improved

## CN1CCc2c(c3ccccc3n2Cc2ccc(C(=O)NO)cc2)C1 [tubastatin A]
[2]
  level of α-tubulin acetylation: increased/recovered back to that of the normal control group; also recorded: significantly increased
[3]; 5 μM tubastatin A treated
  Moving velocity of mitochondria: 0.2446 ± 0.03859 μm/sec
[3]; 10 μM tubastatin A treated
  Migration of mitochondria (number of moving mitochondria by total number): 39.31 ± 3.831%
[4]; [8]
  moving velocity of mitochondria, in words: significantly increased
  transport frequency of mitochondria, in words: significantly increased
[4]; HSP27 P182L-MN, 5 μM tubastatin A treated, 6 hours
  Moving velocity of mitochondria: 0.2599 ± 0.05186 μm/sec
[4]; HSP27 P182L-MN, 10 μM tubastatin A treated, 6 hours
  Migration of mitochondria (number of moving mitochondria by total number): 44.61 ± 10.450%
[5]; [9]
  moving velocity of mitochondria, in words: significantly increased
  transport frequency of mitochondria, in words: significantly increased
[5]; HSP27 S135F-MN, 5 μM tubastatin A treated, 6 hours
  Moving velocity of mitochondria: 0.2498 ± 0.02357 μm/sec

## CN(C)c1ccc([C@H]2C[C@]3(C)[C@@H](CC[C@]3(O)CCCO)[C@@H]3CCC4=CC(=O)CCC4=C32)cc1 [onapristone]
[6]
  over-expression of Pmp22 mRNA: suppressed
  phenotype of hereditary motor and sensory neuropathies: improved
  side effects: without side effects

B1: neurotrophin-3 (protein, UniProt P20783 139-257, looked up)
Neurotrophin-3: YAEHKSHRGEYSVCDSESLWVTDKSSAIDIRGHQVTVLGEIKTGNSPVKQYFYETRCKEARPVKNGCRGIDDKHWNSQCKTSQTYVRALTSENNKLVGWRWIRIDTSCVCALSRKIGRT
notes: neurotrophin reported to increase myelinated nerve fibers
[7]
  myelinated nerve fibers: increased
  sensor related symptoms: improved
